Results on one compound are retold here after patent publication US20060008574A1, “Galactosyl isomalt, method for production and use thereof” (priority 2002, published 2006).

The data set has as its system glucoamylase/maltase (GM complex). Kind of data set: Stability with respect to small intestine α-glucosidases: glucoamylase/maltase. As to conditions: 120 min incubation.

Experimental: Solution 1: 0.1 mol/L triethanolamine (TEA) buffer, pH 7.0
Solution 6: 1% solution of maltose in solution 1
Solution 7: 1% solution of sucrose in solution 1
Solution 8: 1% solution of isomalt in solution 1
Solution 9: 1% solution of isomaltulose in solution 1
Solution 11: Glucoamylase/maltase enzyme complex in solution 1
i) 0.7 unit of the enzyme complex saccharase/isomaltase (solution 10) or glucoamylase/maltase (solution 11) was added in each case to 1.0 mL of a carbohydrate solution heated to 37° C. (solution 2 to solution 8), mixed and incubated at 37° C.
ii) For incubation under more severe conditions, 16 units of the enzyme complex saccharase/isomaltase or 13 units of the enzyme complex glucoamylase/maltase were used. The reaction was stopped after 2 h by heating to 95° C. for 15 min. The resulting monosaccharides and the undegraded saccharides of the relevant batches were quantitatively determined by HPAEC.

With `OCC1O[C@H](OC[C@@H](O)[C@@H](O)[C@H](O)C(O)CO)C(O)C(O[C@@H]2OC(CO)[C@H](O)C(O)C2O)[C@@H]1O` (mixture of isomers) [β-1,3-Galactosyl isomalt, β-D-galactosyl-(1→3)-α-D-glucosyl-(1→6)-D-sorbitol(β-1,3-galactosyl-1,6-GPS) and β-D-galactosyl-(1→3)-α-D-glucosyl-(1→1)-D-mannitol(β-1,3-galactosyl-1,1-GPM)], the “Hydrolysis rate [%]” value was 0% (More stringent (13 units)) and 0% (Standard (0.7 unit), 37° C., pH 7.0).
